Test results taken from US20240174718A1, “RYANODINE RECEPTOR INHIBITOR COMPOUNDS AND METHODS RELATING THERETO” (Vanderbilt University, priority 2022, published 2024).

Columns and labels:
RyR2 = molecular target: T1, RyR2 (Mus musculus, UniProt E9Q401); experiment: Intracellular Ca2+ measurements / spontaneous Ca2+ release in intact Casq2-/- cardiomyocytes; format: cell-based
T1 construct: spontaneous openings of intracellular RyR2 Ca^2+ release channels; endogenous in cells; host or cells: ventricular cardiomyocytes isolated from Casq2-/- mice (saponin-permeabilized in A1, intact in A7)
Description: FIGS. 4(A-G) show intracellular Ca2+ measurements from intact Casq2−/− cardiomyocytes. […] For panels A-D and G, N=26, 30, 30, 30, and 31 cells for DMSO, 0.03, 0.1, 1, and 3 μM ent-B1, respectively. For panels E and F, N=14, 27, 29, 29, and 30 cells for DMSO, 0.03, 0.1, 1, and 3 μM ent-B1, respectively. Data are shown as mean±SD with individual data points.
FIGS. 10(A-B) show the spontaneous Ca^2+ release in intact mouse Casq2^−/− cardiomyocytes. […] Cells were field stimulated at 3 Hz for 20 s before recording. Blue marks indicate final stimulations of pacing train, arrows SCR events. Recording duration was 40 s before 10 mM caffeine application to assess total SR Ca^2+ content. […] Data are shown as mean±SD.
Intracellular Ca^2+ measurements in intact cardiomyocytes—Ventricular cardiomyocytes were isolated from two male 10-week old and one female 13-week old Casq2^−/− mouse as described previously (Knollmann et al., 2006). Cardiomyocytes were pre-incubated for 2 hours with DMSO or ent-B1. Myocytes were then loaded with Fura-2 acetoxymethyl ester (Fura-2 AM; Invitrogen) as described previously (Batiste et al., 2019). Briefly, isolated single ventricular myocytes were incubated with 2 μM Fura-2 AM for 7 minutes to load the indicator in the cytosol. Myocytes were then washed twice for 10 minutes with normal Tyrode (NT) solution containing 250 μM probenecid (all solutions also contained either vehicle [DMSO] or ent-B1). The composition of NT used for Fura-2 loading and washing was (in mM): 134 NaCl, 5.4 KCl, 1.2 CaCl2, 1 MgCl2, 10 glucose, and 10 HEPES, pH adjusted to 7.4 with NaOH. After Fura-2 loading, all experiments were conducted in NT solution containing 1 μM isoproterenol and 2 mM CaCl2. Fura2-loaded myocytes were electrically paced at 3 Hz field stimulation and Ca transients were recorded for 20 seconds followed by no electrical stimulation for 40 seconds to record spontaneous Ca release events. After that, myocytes were perfused with 10 mM caffeine in NT solution for 5 seconds to estimate total SR Ca content. Fura-2 was measured using a dual-beam excitation fluorescence photometry setup (IonOptix Corp.) and analyzed using commercially available data analysis software (IonWizard, IonOptix, Milton, MA). All experiments were conducted at room temperature.
(§1) All tests were two-sided and a p-value cutoff of <0.05 was used to denote significance. Concentration-response curves for RyR2 single-channel, [^3H]ryanodine ligand binding and intact myocyte assays were generated using non-linear regression with the equation: Y=Bottom+(Top−Bottom)/(1+(IC50/X)^HillSlope) using least square regression, no weighting, and no constrains on the parameters. The distributions of relative RyR2 open probability at each [ent-B1] were normalized by taking the log of each sample. For the 3×3 crossover in vivo ECG study, a pre-test was conducted using a mixed model with fixed effects of sequence and period; mice were treated as random effects.

Casq2-/- mice = experiment: Catecholamine-induced arrhythmia challenge (ECG) in CPVT mice; format: in vivo, mouse
Description: Triple crossover study design for in vivo arrhythmia challenge. N=22 Casq2^−/− mice were randomly assigned to vehicle (DMSO), 3 mg/kg, or 30 mg/kg ent-B1 and crossed over twice with one-week washouts between treatment. Mice underwent catecholamine-induced arrhythmia challenge with isoproterenol 15 min after intraperitoneal drug administration. […] Ectopic beats are denoted by p (PVC), c (couplet), and vt (ventricular tachycardia). Normal sinus beats are not marked. […] Individual data are shown with median and interquartile range. Bonferroni-adjusted P values by pairwise Wilcoxon matched-pairs signed rank test. *P=0.020 vs Veh; #P=0.039 vs Veh. […] Bonferroni-adjusted P values by pairwise Wilcoxon matched- pairs signed rank test. #P=0.0058 vs Vehicle.
ECG recording—Nine male and thirteen female Casq2^−/− mice 17-20 weeks old were randomly assigned to a three-by-three crossover design such that every treatment sequence was sampled. Mice were pretreated with intraperitoneal injection of vehicle (DMSO), 3 mg/kg ent-B1, or 30 mg/kg of ent-B1 fifteen minutes prior to baseline ECG recording. Mice were then injected with 3 mg/kg isoproterenol intraperitoneally. Recordings were continued for 5 minutes or for 1 minute after cessation of ventricular ectopy. A washout period of one week was used between treatments. The Vanderbilt Institutional Animal Care and Use Committee (IACUC) approved the use of mice in these studies (protocol #M1900057-01). Animals had free access to food and water.
ECG analysis—LabChart (AD Instruments, Inc) was used to analyze ECG recordings by a reviewer blinded to treatment dose. ECG records were examined to quantify premature ventricular contractions (PVCs), duration of ventricular tachycardia, heart rate, and baseline ECG parameters (PR, QRS and QT interval). Arrhythmias were scored on a five point ordinal scale based on the number of PVCs with the following criteria: 1) zero point for no PVCs; 2) one point for isolated PVCs; 3) two points for bigeminy (alternating sinus beats and PVCs); 4) three points for couplets (two consecutive PVCs); and 5) four points for three or more consecutive PVCs (ventricular tachycardia).
as §1
Casq2^−/− mice are a validated model for preclinical testing of antiarrhythmic drugs for CPVT. […] The same doses of ent-B1 were tested in a triple-crossover design with each mouse receiving vehicle (DMSO), 3 mg/kg, and 30 mg/kg with a one-week washout period between experiments. […] ECGs were analyzed in blinded fashion and ventricular arrhythmias quantified. […] We also scored the mice based on the ventricular arrhythmia severity, i.e., premature ventricular complexes (PVCs)<bigeminy<couplets<ventricular tachycardia. […]

[1] = 3 μM (only the highest concentration tested)

T1 sequence (E9Q401 whole entry): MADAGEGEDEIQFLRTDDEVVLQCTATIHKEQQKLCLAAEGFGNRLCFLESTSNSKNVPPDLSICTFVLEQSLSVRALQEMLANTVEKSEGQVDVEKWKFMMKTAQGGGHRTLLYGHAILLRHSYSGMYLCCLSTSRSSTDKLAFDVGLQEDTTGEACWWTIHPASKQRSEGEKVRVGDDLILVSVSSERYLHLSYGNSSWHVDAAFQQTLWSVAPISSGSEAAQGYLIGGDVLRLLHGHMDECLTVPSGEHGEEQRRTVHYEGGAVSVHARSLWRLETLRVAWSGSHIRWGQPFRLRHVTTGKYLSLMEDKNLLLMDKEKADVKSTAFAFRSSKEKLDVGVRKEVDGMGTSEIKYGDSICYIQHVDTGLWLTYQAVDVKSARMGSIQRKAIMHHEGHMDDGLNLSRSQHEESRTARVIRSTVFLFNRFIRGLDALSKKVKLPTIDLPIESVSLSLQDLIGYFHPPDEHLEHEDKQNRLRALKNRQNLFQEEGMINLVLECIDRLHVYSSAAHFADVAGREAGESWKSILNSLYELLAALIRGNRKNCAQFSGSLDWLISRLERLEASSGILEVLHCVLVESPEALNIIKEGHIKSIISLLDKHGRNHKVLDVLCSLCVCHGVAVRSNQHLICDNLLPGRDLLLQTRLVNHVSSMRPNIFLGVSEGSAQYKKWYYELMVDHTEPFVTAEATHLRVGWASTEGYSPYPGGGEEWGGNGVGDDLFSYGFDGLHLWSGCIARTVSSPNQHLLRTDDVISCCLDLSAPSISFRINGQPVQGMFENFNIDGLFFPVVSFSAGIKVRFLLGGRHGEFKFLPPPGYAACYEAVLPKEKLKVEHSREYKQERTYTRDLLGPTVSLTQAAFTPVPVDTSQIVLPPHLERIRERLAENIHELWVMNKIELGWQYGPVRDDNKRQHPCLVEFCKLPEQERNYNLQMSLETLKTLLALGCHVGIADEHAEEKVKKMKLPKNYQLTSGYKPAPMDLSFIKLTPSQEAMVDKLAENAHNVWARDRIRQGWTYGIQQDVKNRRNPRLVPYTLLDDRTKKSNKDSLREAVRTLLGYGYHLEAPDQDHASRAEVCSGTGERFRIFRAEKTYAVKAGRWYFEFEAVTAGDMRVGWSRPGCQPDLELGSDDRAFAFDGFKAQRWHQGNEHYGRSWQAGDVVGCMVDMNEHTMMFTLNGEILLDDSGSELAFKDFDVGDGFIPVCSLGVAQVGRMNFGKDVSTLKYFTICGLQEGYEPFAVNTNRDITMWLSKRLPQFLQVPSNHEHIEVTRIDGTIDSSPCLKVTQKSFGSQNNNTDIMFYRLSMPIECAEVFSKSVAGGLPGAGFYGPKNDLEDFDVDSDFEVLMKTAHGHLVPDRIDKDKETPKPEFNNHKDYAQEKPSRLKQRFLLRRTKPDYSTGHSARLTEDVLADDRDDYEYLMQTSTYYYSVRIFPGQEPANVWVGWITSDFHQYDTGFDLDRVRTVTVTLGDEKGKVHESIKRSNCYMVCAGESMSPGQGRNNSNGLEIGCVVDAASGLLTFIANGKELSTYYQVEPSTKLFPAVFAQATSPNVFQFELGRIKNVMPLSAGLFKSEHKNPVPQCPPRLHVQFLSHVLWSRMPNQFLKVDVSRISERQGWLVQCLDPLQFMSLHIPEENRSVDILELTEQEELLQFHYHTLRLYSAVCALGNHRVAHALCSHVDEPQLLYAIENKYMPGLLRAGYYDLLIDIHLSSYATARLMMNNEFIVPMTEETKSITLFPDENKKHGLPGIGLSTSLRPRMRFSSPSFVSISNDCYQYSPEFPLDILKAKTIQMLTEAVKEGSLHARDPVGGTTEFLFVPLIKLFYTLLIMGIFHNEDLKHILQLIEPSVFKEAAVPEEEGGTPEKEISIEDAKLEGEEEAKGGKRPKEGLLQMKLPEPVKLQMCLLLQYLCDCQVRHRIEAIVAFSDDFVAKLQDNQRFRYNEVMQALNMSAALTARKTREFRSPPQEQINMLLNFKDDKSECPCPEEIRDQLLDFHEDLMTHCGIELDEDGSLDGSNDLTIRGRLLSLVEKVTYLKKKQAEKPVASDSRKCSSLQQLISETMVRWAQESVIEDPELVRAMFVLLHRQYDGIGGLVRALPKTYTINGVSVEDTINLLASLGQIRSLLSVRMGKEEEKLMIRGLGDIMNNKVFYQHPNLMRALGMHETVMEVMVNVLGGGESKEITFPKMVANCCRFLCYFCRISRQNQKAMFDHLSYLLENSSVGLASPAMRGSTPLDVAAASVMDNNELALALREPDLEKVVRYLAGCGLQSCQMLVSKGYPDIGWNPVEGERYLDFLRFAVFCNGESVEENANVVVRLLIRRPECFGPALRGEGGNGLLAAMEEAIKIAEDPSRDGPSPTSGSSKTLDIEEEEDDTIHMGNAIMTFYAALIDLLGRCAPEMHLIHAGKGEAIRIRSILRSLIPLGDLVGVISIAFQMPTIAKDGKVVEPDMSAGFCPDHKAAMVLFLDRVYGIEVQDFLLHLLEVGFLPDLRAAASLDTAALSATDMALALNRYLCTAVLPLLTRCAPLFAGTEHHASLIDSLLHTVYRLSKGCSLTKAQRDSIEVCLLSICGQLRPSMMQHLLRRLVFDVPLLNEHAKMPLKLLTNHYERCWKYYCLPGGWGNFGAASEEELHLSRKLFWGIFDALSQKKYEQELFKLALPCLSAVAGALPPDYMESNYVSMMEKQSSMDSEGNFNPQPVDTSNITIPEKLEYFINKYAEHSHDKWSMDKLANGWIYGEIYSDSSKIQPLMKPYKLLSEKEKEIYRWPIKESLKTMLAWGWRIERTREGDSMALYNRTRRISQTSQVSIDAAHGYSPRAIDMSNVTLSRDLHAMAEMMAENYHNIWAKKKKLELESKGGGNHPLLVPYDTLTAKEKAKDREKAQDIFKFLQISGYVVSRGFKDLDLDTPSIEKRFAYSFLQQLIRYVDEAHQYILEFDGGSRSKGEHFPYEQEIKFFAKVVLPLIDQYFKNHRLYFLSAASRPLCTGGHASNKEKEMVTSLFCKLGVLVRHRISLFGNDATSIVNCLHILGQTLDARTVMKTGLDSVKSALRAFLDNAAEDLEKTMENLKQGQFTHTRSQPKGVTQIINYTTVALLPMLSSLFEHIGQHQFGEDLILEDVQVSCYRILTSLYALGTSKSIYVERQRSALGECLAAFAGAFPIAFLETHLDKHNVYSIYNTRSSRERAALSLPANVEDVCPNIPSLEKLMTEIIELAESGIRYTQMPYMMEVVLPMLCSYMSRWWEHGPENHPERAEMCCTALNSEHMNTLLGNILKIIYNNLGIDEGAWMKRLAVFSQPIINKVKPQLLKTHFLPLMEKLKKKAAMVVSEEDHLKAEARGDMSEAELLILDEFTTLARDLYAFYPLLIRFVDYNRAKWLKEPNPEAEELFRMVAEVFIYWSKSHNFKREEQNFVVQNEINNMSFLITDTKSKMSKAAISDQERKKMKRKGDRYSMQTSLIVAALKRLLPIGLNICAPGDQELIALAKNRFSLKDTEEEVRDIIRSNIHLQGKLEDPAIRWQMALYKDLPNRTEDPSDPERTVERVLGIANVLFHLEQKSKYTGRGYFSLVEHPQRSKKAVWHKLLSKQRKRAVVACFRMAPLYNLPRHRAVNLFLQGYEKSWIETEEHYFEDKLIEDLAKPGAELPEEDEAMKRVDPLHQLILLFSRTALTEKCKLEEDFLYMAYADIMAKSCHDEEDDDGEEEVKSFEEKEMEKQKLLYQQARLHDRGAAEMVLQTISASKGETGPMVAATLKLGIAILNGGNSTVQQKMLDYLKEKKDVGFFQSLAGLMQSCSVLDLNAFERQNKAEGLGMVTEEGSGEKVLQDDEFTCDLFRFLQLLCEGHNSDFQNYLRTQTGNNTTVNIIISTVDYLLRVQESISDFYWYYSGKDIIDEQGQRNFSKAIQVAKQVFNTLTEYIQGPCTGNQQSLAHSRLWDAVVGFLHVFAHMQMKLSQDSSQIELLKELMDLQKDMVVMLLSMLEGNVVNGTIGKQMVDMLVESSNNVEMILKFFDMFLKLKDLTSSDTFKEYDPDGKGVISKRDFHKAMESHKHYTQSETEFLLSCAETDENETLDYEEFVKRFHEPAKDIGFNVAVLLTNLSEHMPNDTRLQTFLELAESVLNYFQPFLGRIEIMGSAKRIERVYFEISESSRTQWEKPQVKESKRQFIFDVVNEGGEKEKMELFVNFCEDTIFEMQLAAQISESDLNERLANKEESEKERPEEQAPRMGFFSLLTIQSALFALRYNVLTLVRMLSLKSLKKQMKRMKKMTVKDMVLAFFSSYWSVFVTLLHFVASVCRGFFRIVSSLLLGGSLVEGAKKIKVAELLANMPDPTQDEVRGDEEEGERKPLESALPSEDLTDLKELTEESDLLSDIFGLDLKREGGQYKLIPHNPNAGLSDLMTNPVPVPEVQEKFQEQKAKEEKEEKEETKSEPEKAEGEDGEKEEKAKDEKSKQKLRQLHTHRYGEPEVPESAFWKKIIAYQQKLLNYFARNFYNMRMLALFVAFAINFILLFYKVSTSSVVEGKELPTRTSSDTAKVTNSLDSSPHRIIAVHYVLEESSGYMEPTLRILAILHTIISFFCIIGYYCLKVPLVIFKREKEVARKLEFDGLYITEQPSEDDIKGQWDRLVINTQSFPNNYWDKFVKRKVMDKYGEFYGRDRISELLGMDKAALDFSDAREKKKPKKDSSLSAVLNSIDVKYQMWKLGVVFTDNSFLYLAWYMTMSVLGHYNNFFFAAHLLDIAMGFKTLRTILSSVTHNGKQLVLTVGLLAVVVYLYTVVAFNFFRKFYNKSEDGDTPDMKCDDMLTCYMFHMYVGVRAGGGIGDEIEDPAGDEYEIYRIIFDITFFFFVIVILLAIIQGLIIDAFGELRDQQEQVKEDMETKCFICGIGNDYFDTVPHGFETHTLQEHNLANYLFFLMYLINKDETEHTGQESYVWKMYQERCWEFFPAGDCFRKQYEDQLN

CCCCC[C@@H]1OC(=O)[C@@H](C)N(C)C(=O)[C@H](CCCCC)OC(=O)[C@@H](C)N(C)C(=O)[C@H](CCCCC)OC(=O)[C@@H](C)N(C)C1=O (single isomer, unassigned) [ent-B1]
Ca2+ decay kinetics (indicator of SERCA2 SR uptake rate) (RyR2): no effect
time-to-peak of Ca2+ transients (RyR2): no effect
amplitude of the caffeine-induced Ca2+ transient (RyR2; [1]): reduced
amplitude of the systolic Ca2+ transient (RyR2; [1]): reduced
diastolic Ca2+ levels (RyR2; [1]): reduced
reduction in ventricular ectopy burden (Casq2-/- mice; 30 mg/kg i.p., Casq2-/- mice, isoproterenol challenge): 70%
incidence of VT (Casq2-/- mice; 3 and 30 mg/kg i.p. vs vehicle): dose-dependent reduction
number of total ectopic beats (Casq2-/- mice; 3 and 30 mg/kg i.p. vs vehicle): dose-dependent reduction
suppression of ventricular tachycardia (Casq2-/- mice; only at the higher dose tested, 30 mg/kg): statistically significant suppression
arrhythmia risk scores (Casq2-/- mice; ordinal scale 0-4, vs vehicle): lower
